# Experimental data from PubChem BioAssay AID1918994 (Molecular Pharmacology Branch, DTP, NCI, 2023).
# Tested on: 292921-168-R-J2-PDC complex spheroid growth
# Experiment: Anticancer human tumor 292921-168-R-J2-PDC patient-derived pancreatic carcinoma cell line growth inhibition [AhR]
# Details: for IC50: curve of first compound; for viability, T/C: stronger effect = lower value
# Text: Multicellular complex tumor spheroid response to aryl hydrocarbon receptor antagonists in combination with a variety of drugs and investigational agents in selected tumor cell lines
# The current study was undertaken to assess response to aryl hydrocarbon receptor antagonists in combination with standard-of-care drugs and investigational agents in solid tumor complex spheroid models. Complex spheroids include a stromal component modeled by human endothelial cells (HUVEC) and fibroblasts modeled by human mesenchymal stem cells (MSCs). The concentration ranges selected for each drug and investigational agent were based upon clinically achievable concentrations if the clinical Cmax of the agent was known.
# Compounds. The drugs and investigational agents: BAY 2416964 (NSC825713), GNF351 (NSC835774), CH-223191 (NSC835775), CPI-455 (NSC825282), aza-TdCyd (NSC777586), decitabine (NSC127716), belinostat (NSC758774), entinostat (NSC756642), pevonedistat (NSC761192), tazemetostat (NSC777109), talazoparib (NSC765396), olaparib (NSC753686), selinexor (NSC780203), nedisertib (M3814, NSC802822), bortezomib (NSC756655), venetoclax (NSC766270), doxorubicin (NSC123127), elimusertib (BAY189344, NSC800525), ceralasertib (AZD6738, NSC777638), TAK-243 (NSC785004), alisertib (NSC759677), etoposide (NSC141540), topotecan (NSC609699), eribulin (NSC707389), gemcitabine (NSC613327), carboplatin (NSC241240), cisplatin (NSC119875), and SN-38 (NSC673596) were obtained from the National Cancer Institute (NCI) Developmental Therapeutics Program Chemical Repository (32). The FDA-approved anticancer drug set is available from the Developmental Therapeutics Program at https://dtp.cancer.gov/organization/dscb/obtaining/available plates.htm. […] The stock solutions were prepared in dimethyl sulfoxide (DMSO, Sigma-Aldrich, St. Louis, MO, cat. D2650), except for the platinum compounds which were prepared in saline (Quality Biological, Gaithersburg, MD, cat. 114-055-101), at 800-fold the tested concentration and stored at -70 degrees C prior to their use. All drugs and investigational agents were tested over a range starting from a high concentration at or near the clinical Cmax and decreasing in half-log increments. If the clinical Cmax for an agent had not been determined, the highest concentration tested was 10 microM (Table 1).
# Cell Culture. All cells were maintained in an incubator at 37 degrees C and 5% CO2 with 95% humidity. The PDC lines were cultured according to standard operating procedures established by the NCI PDMR (https://pdmr.cancer.gov). Briefly, all PDCs were thawed and cultured in Matrigel-coated flasks prepared with a working solution of 1X Ham's F-12 nutrient mix, without supplementation (Invitrogen, Waltham, MA, cat. 11765054), 100 U/mL penicillin-streptomycin (Invitrogen, cat. 15140122), and 2.5% Matrigel (Corning Inc., Corning, NY, cat. 354248) for the first three passages. All PDCs were cultured in complete DMEM/F-12 media containing advanced DMEM/F-12 (Invitrogen, cat. 12634028), 4.9% defined fetal bovine serum, heat inactivated (HyClone Laboratories Inc., Logan, UT, cat. SH30070.03HI), 389 ng/mL hydrocortisone (Sigma-Aldrich, cat. H4001), 9.7 ng/mL human EGF recombinant protein (Invitrogen, cat. PHG0313), 23.4 microg/mL adenine (Sigma-Aldrich, cat. A2786), 97.3 U/mL penicillin-streptomycin (Invitrogen, cat. 15140122), 1.9 mM L-glutamine (Invitrogen, cat. 25030081), and 9.7 microM Y-27632 dihydrochloride (Tocris Bioscience, Bristol, United Kingdom, cat. 1254). The PDCs were cultured in complete DMEM/F12 media without 10 microM Y-27632 dihydrochloride for at least two passages prior to the screen. The established cell lines NCI-H1341 and […] were cultured in DMEM/F-12, HEPES (Invitrogen, cat. 11330032), 5% defined fetal bovine serum (HyClone Laboratories Inc., cat. SH30070.03), ITS premix universal culture supplement [insulin (5 microg/mL), transferrin (5 microg/mL), and selenious acid (5 ng/mL)] […]
# 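Further: spheroids exposed to compounds for seven days after three days of growth.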
compound,measurement,setting,value
O=C(C=Cc1cccc(S(=O)(=O)Nc2ccccc2)c1)NO + CC(CO)NC(=O)c1cc(-c2ccc(Cl)cc2)nn(-c2cnn(C)c2)c1=O,IC50,second compound 0.1 µM,279 nM
same,IC50,second compound 0.316 µM,327 nM
same,IC50,second compound 1 µM,261 nM
same,IC50,second compound 3.16 µM,146 nM
same,IC50,second compound 10 µM,< 31.6 nM
same,"viability, T/C","second compound 0.1 µM, first compound 0.0316 µM",72.2%
same,"viability, T/C","second compound 0.1 µM, first compound 0.1 µM",56.7%
same,"viability, T/C","second compound 0.1 µM, first compound 0.316 µM",48.6%
same,"viability, T/C","second compound 0.1 µM, first compound 1 µM",35.1%
same,"viability, T/C","second compound 0.1 µM, first compound 3.16 µM",28.5%
same,"viability, T/C","second compound 0.1 µM, first compound 10 µM",1.96%
same,"viability, T/C","second compound 0.316 µM, first compound 0.0316 µM",74%
same,"viability, T/C","second compound 0.316 µM, first compound 0.1 µM",63.3%
same,"viability, T/C","second compound 0.316 µM, first compound 0.316 µM",46.1%
same,"viability, T/C","second compound 0.316 µM, first compound 1 µM",36.3%
same,"viability, T/C","second compound 0.316 µM, first compound 3.16 µM",30.7%
same,"viability, T/C","second compound 0.316 µM, first compound 10 µM",2.62%
same,"viability, T/C","second compound 1 µM, first compound 0.0316 µM",67.8%
same,"viability, T/C","second compound 1 µM, first compound 0.1 µM",57.3%
same,"viability, T/C","second compound 1 µM, first compound 0.316 µM",46.5%
same,"viability, T/C","second compound 1 µM, first compound 1 µM",35.4%
same,"viability, T/C","second compound 1 µM, first compound 3.16 µM",28.7%
same,"viability, T/C","second compound 1 µM, first compound 10 µM",3.31%
same,"viability, T/C","second compound 3.16 µM, first compound 0.0316 µM",64%
same,"viability, T/C","second compound 3.16 µM, first compound 0.1 µM",52%
same,"viability, T/C","second compound 3.16 µM, first compound 0.316 µM",41.9%
same,"viability, T/C","second compound 3.16 µM, first compound 1 µM",31%
same,"viability, T/C","second compound 3.16 µM, first compound 3.16 µM",22.5%
same,"viability, T/C","second compound 3.16 µM, first compound 10 µM",2.61%
same,"viability, T/C","second compound 10 µM, first compound 0.0316 µM",50.4%
same,"viability, T/C","second compound 10 µM, first compound 0.1 µM",43.6%
same,"viability, T/C","second compound 10 µM, first compound 0.316 µM",39.1%
same,"viability, T/C","second compound 10 µM, first compound 1 µM",29.1%
same,"viability, T/C","second compound 10 µM, first compound 3.16 µM",20%
same,"viability, T/C","second compound 10 µM, first compound 10 µM",1.62%
Nc1ncn(C2CC(O)C(CO)S2)c(=O)n1 (stereo not given) + CC(CO)NC(=O)c1cc(-c2ccc(Cl)cc2)nn(-c2cnn(C)c2)c1=O,IC50,second compound 0.1 µM,> 300 nM
same,IC50,second compound 0.316 µM,> 300 nM
same,IC50,second compound 1 µM,> 300 nM
same,IC50,second compound 3.16 µM,> 300 nM
same,IC50,second compound 10 µM,> 300 nM
same,"viability, T/C","second compound 0.1 µM, first compound 0.000949 µM",94.1%
same,"viability, T/C","second compound 0.1 µM, first compound 0.003 µM",94%
same,"viability, T/C","second compound 0.1 µM, first compound 0.00949 µM",98.8%
same,"viability, T/C","second compound 0.1 µM, first compound 0.03 µM",91%
same,"viability, T/C","second compound 0.1 µM, first compound 0.0949 µM",88.9%
same,"viability, T/C","second compound 0.1 µM, first compound 0.3 µM",73.5%
same,"viability, T/C","second compound 0.316 µM, first compound 0.000949 µM",92.3%
same,"viability, T/C","second compound 0.316 µM, first compound 0.003 µM",95%
same,"viability, T/C","second compound 0.316 µM, first compound 0.00949 µM",96.3%
same,"viability, T/C","second compound 0.316 µM, first compound 0.03 µM",92.6%
same,"viability, T/C","second compound 0.316 µM, first compound 0.0949 µM",82.7%
same,"viability, T/C","second compound 0.316 µM, first compound 0.3 µM",77.7%
same,"viability, T/C","second compound 1 µM, first compound 0.000949 µM",97.7%
same,"viability, T/C","second compound 1 µM, first compound 0.003 µM",103%
same,"viability, T/C","second compound 1 µM, first compound 0.00949 µM",102%
same,"viability, T/C","second compound 1 µM, first compound 0.03 µM",91.8%
same,"viability, T/C","second compound 1 µM, first compound 0.0949 µM",87.8%
same,"viability, T/C","second compound 1 µM, first compound 0.3 µM",80.7%
same,"viability, T/C","second compound 3.16 µM, first compound 0.000949 µM",90.7%
same,"viability, T/C","second compound 3.16 µM, first compound 0.003 µM",88.3%
same,"viability, T/C","second compound 3.16 µM, first compound 0.00949 µM",89.4%
same,"viability, T/C","second compound 3.16 µM, first compound 0.03 µM",83.2%
same,"viability, T/C","second compound 3.16 µM, first compound 0.0949 µM",82.7%
same,"viability, T/C","second compound 3.16 µM, first compound 0.3 µM",72.2%
same,"viability, T/C","second compound 10 µM, first compound 0.000949 µM",71.9%
same,"viability, T/C","second compound 10 µM, first compound 0.003 µM",67.7%
same,"viability, T/C","second compound 10 µM, first compound 0.00949 µM",67.6%
same,"viability, T/C","second compound 10 µM, first compound 0.03 µM",67.4%
same,"viability, T/C","second compound 10 µM, first compound 0.0949 µM",61.9%
same,"viability, T/C","second compound 10 µM, first compound 0.3 µM",60.5%
